According to US8445636B2, “Antimicrobial and anticancer lipopeptides” (Yeda Research & Development Co. Ltd., priority 2003, dated 2013):
Converted amounts (≈) assume the structure as drawn. Read-outs that look alike come from different tables or passages of the source. Non-standard residues stand in square brackets, D forms with d. Residues, ends and D or L forms follow the SMILES beside them. *: point of attachment. Lauroyl = CCCCCCCCCCCC(=O)*

Experiments:
[1] = Cytotoxicity, XTT viability, non-cancer cells; format: cell-based; conditions: mouse, non-cancer cell line, 24 h incubation, read-out: LC50, 3T3
Outline: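 Cells (CL1, 22RV1 in RPMI-1640/10% FCS; NIH-3T3 fibroblasts in DMEM/10% bovine serum) seeded at 1×10^4/well, next day exposed to graded peptide concentrations for 24 h. Viability read by XTT; LC50 (50% cell death) taken from dose-dependent viability curves.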

[2] = system: Candida albicans ATCC 10231; experiment: microbe, parasite or virus in culture; format: cell-based
Outline: (§1)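 Broth microdilution in RPMI 1640/0.165 M MOPS, 1×10^4 CFU/ml inoculum, 2-fold serial lipopeptide dilutions in water, pH 7.4 unless stated (pH 5.5 alternative). Incubated 24–48 h at 35 °C with agitation; growth read at A620. MIC = lowest concentration giving 100% growth inhibition.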

[3] = system: Cryptococcus neoformans ATCC 66031; experiment: microbe, parasite or virus in culture; format: cell-based
Outline: as §1

E. coli D21 = format: cell-based
[4] = system: Prostate cancer cell line 22RV1; experiment: Cytotoxicity, XTT viability; format: cell-based, human; conditions: 24 h incubation, read-out: LC50, Prostate cancer 22RV1
Procedure: (§2) Prostate cancer cell lines (CL1 and 22RV1; ATCC, USA) were grown in RPMI-1640 supplemented with 10% FCS (Biological Industries, Beit Haemek, Israel). N1H-3T3 mouse fibroblast cell line (ATCC, USA) was grown in DMEM supplemented with 10% bovine serum. To test cytotoxicity against the cancer cells, aliquots of medium containing 1×10^4 cells were distributed into a 96-well plate (Falcon). After one day, the media were replaced with 90 μl of fresh media and 10 μl of a solution containing different concentrations of the peptides. The plate was then incubated for 24 h before adding to each well 50 μl of XTT reaction solution (Biological Industries, Beit Haemek, Israel); viability was determined as previously described (Papo et al., (2003) J. Biol. Chem. 278:21018-23). The LC50 (concentration at which 50% of the cells die) for each peptide was obtained from the dose-dependent cell viability curves.

[5] = system: Prostate cancer cell line CL1; experiment: Cytotoxicity, XTT viability; format: cell-based, human; conditions: 24 h incubation, read-out: LC50, Prostate cancer CL1
Procedure: as §2

[6] = system: Aspergillus fumigatus ATCC 26430; experiment: microbe, parasite or virus in culture; format: cell-based
[7] = system: Pseudomonas aeruginosa ATCC 27853; format: cell-based
Outline: (§3)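 LB, pH 7.4 default (5.5 optional, adjusted with HCl/NaOH); inoculum suspension 1×10^6 CFU/ml, added 1:1 to 2-fold lipopeptide dilutions in water; 37° C, 18-20 h; OD600; MIC = 100% inhibition.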

[8] = system: Acinetobacter baumannii ATCC 19606; format: cell-based
Outline: as §3

[9] = system: Staphylococcus aureus ATCC 6538P; format: cell-based
Outline: as §3

[10] = system: Escherichia coli ATCC 25922; format: cell-based
Outline: as §3

## CCCCCCCCCCCC(=O)N[C@H](CC(C)C)C(=O)N[C@@H](CCCNC(=N)N)C(=O)N[C@@H](CCCNC(=N)N)C(=O)N[C@H](CC(C)C)C(=O)N[C@H](CC(C)C)C(=O)N[C@@H](CCCNC(=N)N)C(=O)N[C@@H](CCCNC(=N)N)C(=O)N[C@H](CC(C)C)C(=O)N[C@H](CC(C)C)C(=O)N[C@@H](CCCNC(=N)N)C(=O)N[C@@H](CCCNC(=N)N)C(=O)N[C@H](CC(C)C)C(N)=O [lipopeptide 25, (CH3-(CH2)10-CO-)-D-Leu-Arg-Arg-D-Leu-D-Leu-Arg-Arg-D-Leu-D-Leu-Arg-Arg-D-Leu-NH2] (Lauroyl-[dL]RR[dL][dL]RR[dL][dL]RR[dL]-NH2)
[1]
  CC50 at 24 h: 100 µM
[2]; ATCC 10231, pH 5.5, read-out: Minimal inhibitory concentrations, C. Albicans With serum
  MIC: 100 µM (≈ 182 µg/mL)
[2]; ATCC 10231, pH 5.5, read-out: Minimal inhibitory concentrations, C. Albicans Without serum
  MIC: 12.5 µM (≈ 22.7 µg/mL)
[2]; ATCC 10231, pH 7.4, read-out: Minimal inhibitory concentrations, C. Albicans With serum
  MIC: 100 µM (≈ 182 µg/mL)
[2]; ATCC 10231, pH 7.4, read-out: Minimal inhibitory concentrations, C. Albicans Without serum
  MIC: 3.125 µM (≈ 5.67 µg/mL)
[3]; ATCC 66031, pH 5.5, read-out: Minimal inhibitory concentrations, C. Neofor. With serum
  MIC: 2.34 µM (≈ 4.25 µg/mL)
[3]; ATCC 66031, pH 5.5, read-out: Minimal inhibitory concentrations, C. Neofor. Without serum
  MIC: <0.78 µM
[3]; ATCC 66031, pH 7.4, read-out: Minimal inhibitory concentrations, C. Neofor. With serum
  MIC: <0.78 µM
[3]; ATCC 66031, pH 7.4, read-out: Minimal inhibitory concentrations, C. Neofor. Without serum
  MIC: <0.78 µM
E. coli D21; D21, pH 5.5
  Minimal inhibitory concentrations, E. Coli D21: 50 µM (≈ 90.8 µg/mL)
E. coli D21; D21, pH 7.4
  Minimal inhibitory concentrations, E. Coli D21: 50 µM (≈ 90.8 µg/mL)
[4]
  CC50: 3.12 µM
[5]
  CC50: 3.12 µM
[6]; ATCC 26430, pH 5.5, read-out: Minimal inhibitory concentrations, A. Fumig. With serum
  MIC: 50 µM (≈ 90.8 µg/mL)
[6]; ATCC 26430, pH 5.5, read-out: Minimal inhibitory concentrations, A. Fumig. Without serum
  MIC: 6.25 µM (≈ 11.3 µg/mL)
[6]; ATCC 26430, pH 7.4, read-out: Minimal inhibitory concentrations, A. Fumig. With serum
  MIC: 50 µM (≈ 90.8 µg/mL)
[6]; ATCC 26430, pH 7.4, read-out: Minimal inhibitory concentrations, A. Fumig. Without serum
  MIC: 3.125 µM (≈ 5.67 µg/mL)
[7]; ATCC 27853, pH 5.5
  Minimal inhibitory concentrations, P. Aeruginosa ATCC 27853: 50 µM (≈ 90.8 µg/mL)
[7]; ATCC 27853, pH 7.4
  Minimal inhibitory concentrations, P. Aeruginosa ATCC 27853: 50 µM (≈ 90.8 µg/mL)
[8]; ATCC 19606, pH 5.5
  Minimal inhibitory concentrations, A. baumannii ATCC 19606: 75 µM (≈ 136 µg/mL)
[8]; ATCC 19606, pH 7.4
  Minimal inhibitory concentrations, A. baumannii ATCC 19606: >100 µM
[9]; ATCC 6538, pH 5.5
  Minimal inhibitory concentrations, S. aureus II ATCC 6538P: 50 µM (≈ 90.8 µg/mL)
[9]; ATCC 6538, pH 7.4
  Minimal inhibitory concentrations, S. aureus II ATCC 6538P: 12.5 µM (≈ 22.7 µg/mL)
[10]; ATCC 25922, pH 5.5
  Minimal inhibitory concentrations, E. Coli ATCC 25922: 100 µM (≈ 182 µg/mL)
[10]; ATCC 25922, pH 7.4
  Minimal inhibitory concentrations, E. Coli ATCC 25922: >100 µM
